Experimental data reported in US6737383B1, “Herbicidal oxadiazolidines” (priority 1999, dated 2004).

Tests used:
purple nutsedge = assay: Test B pre/postemergence purple nutsedge; format: in vivo, Cyperus rotundus; settings: for Nutsedge plant response rating: scale of 0 to 10 where 0 is no effect and 10 is complete control
Outline: (§1)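 Test chemicals in a non-phytotoxic solvent mixture with surfactant were sprayed preemergence onto planted seeds and postemergence onto plants 2 to 18 cm tall (1- to 4-leaf stage). After twelve to sixteen days in a greenhouse, injury was visually rated against untreated controls from 0 (no effect) to 10 (complete control).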

morningglory = assay: Test B pre/postemergence morningglory; format: in vivo, Ipomoea hederacea; settings: for Morningglory plant response rating: scale of 0 to 10 where 0 is no effect and 10 is complete control
Outline: as §1

crabgrass = assay: Test B pre/postemergence crabgrass; format: in vivo, Digitaria sanguinalis; settings: for Crabgrass plant response rating: scale of 0 to 10 where 0 is no effect and 10 is complete control
Outline: as §1

giant foxtail = assay: Test B pre/postemergence giant foxtail; format: in vivo, Setaria faberii; settings: for Giant foxtail plant response rating: scale of 0 to 10 where 0 is no effect and 10 is complete control
Outline: as §1

rice = assay: Test B flood test rice; format: in vivo, Oryza sativa
Outline: (§2)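 Each value is a visual injury score relative to controls, with 10 meaning complete control and 0 no effect. Evaluation took place twelve to sixteen days after the 2-leaf-stage plants were treated and kept in the greenhouse.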

bamyardgrass = assay: Test B flood test barnyardgrass; format: in vivo, Echinochloa crus-galli
Outline: as §2

cocklebur = assay: Test B pre/postemergence cocklebur; format: in vivo, Xanthium strumarium; settings: for Cocklebur plant response rating: scale of 0 to 10 where 0 is no effect and 10 is complete control
Outline: as §1

wild oat = assay: Test B pre/postemergence wild oat; format: in vivo, Avena fatua; settings: for Wild oats plant response rating: scale of 0 to 10 where 0 is no effect and 10 is complete control
Outline: as §1

smallflower flatsedge = assay: Test B flood test smallflower flatsedge; format: in vivo, Cyperus difformis
Outline: as §2

soybean = assay: Test B pre/postemergence soybean; format: in vivo, Glycine max; settings: for Soybean plant response rating: scale of 0 to 10 where 0 is no effect and 10 is complete control
Outline: as §1

blackgrass = assay: Test B pre/postemergence blackgrass; format: in vivo, Alopecurus myosuroides
Outline: as §1

wheat = assay: Test B pre/postemergence wheat; format: in vivo, Triticum aestivum; settings: for Wheat plant response rating: scale of 0 to 10 where 0 is no effect and 10 is complete control
Outline: as §1

velvetleaf = assay: Test B pre/postemergence velvetleaf; format: in vivo, Abutilon theophrasti; settings: for Velvetleaf plant response rating: scale of 0 to 10 where 0 is no effect and 10 is complete control
Outline: as §1

corn = assay: Test B pre/postemergence corn; format: in vivo, Zea mays; settings: for Corn plant response rating: scale of 0 to 10 where 0 is no effect and 10 is complete control
Outline: as §1

duck salad = assay: Test B flood test duck salad; format: in vivo, Heteranthera limosa
Outline: as §2

surinam grass = assay: Test B pre/postemergence surinam grass; format: in vivo, Brachiaria decumbens
Outline: as §1

bedstraw = assay: Test B pre/postemergence bedstraw; format: in vivo, Galium aparine; settings: Postemergence
Outline: as §1

[1] = Postemergence, Rate 125 g/ha, scale 0 to 10, 0 is no effect, 10 is complete control
[2] = Preemergence, Rate 62 g/ha, scale 0 to 10 (0 no effect, 10 complete control)
[3] = Rate 500 g/ha, Postemergence, scale 0 to 10, 0 no effect, 10 complete control
[4] = Postemergence (flood test), Rate 125 g/ha, scale 0 to 10, 0 is no effect, 10 is complete control
[5] = Rate 62 g/ha, Postemergence (flood test species), scale of 0 to 10 where 0 is no effect and 10 is complete control
[6] = Rate 500 g/ha, listed under Postemergence (flood test species), scale 0 to 10, 0 no effect, 10 complete control
[7] = Preemergence, Rate 500 g/ha, scale of 0 to 10 where 0 is no effect and 10 is complete control
[8] = Rate 62 g/ha, Postemergence, scale of 0 to 10 where 0 is no effect and 10 is complete control
[9] = Rate 250 g/ha, Postemergence, scale of 0 to 10 where 0 is no effect and 10 is complete control

CC(C)N(C(=O)n1oc(=O)n(C2CCC2)c1=O)c1ccc(Cl)cc1 [Compound 349]
Plant response rating, Nutsedge (purple nutsedge; [1]): 0 | Plant response rating, Nutsedge (purple nutsedge; [2]): 0 | Nutsedge plant response rating (0 to 10 scale) (purple nutsedge; Preemergence, Rate 125 g/ha): 0 | Nutsedge plant response rating (purple nutsedge; Preemergence, Rate 250 g/ha): 0 | Nutsedge plant response rating (purple nutsedge; Preemergence, Rate 500 g/ha): 0 | Nutsedge plant response rating (purple nutsedge; Rate 62 g/ha, Postemergence): 0 | Plant response rating, Nutsedge (purple nutsedge; [3]): 0 | Plant response rating, Morningglory (morningglory; [1]): 5 | Plant response rating, Morningglory (morningglory; [2]): 0 | Morningglory plant response rating (0 to 10 scale) (morningglory; Preemergence, Rate 125 g/ha): 0 | Morningglory plant response rating (morningglory; Preemergence, Rate 250 g/ha): 0 | Morningglory plant response rating (morningglory; Preemergence, Rate 500 g/ha): 0 | Morningglory plant response rating (morningglory; Rate 62 g/ha, Postemergence): 5 | Plant response rating, Morningglory (morningglory; [3]): 10 | Plant response rating, Crabgrass (crabgrass; [1]): 0 | Plant response rating, Crabgrass (crabgrass; [2]): 3 | Crabgrass plant response rating (0 to 10 scale) (crabgrass; Preemergence, Rate 125 g/ha): 6 | Crabgrass plant response rating (crabgrass; Preemergence, Rate 250 g/ha): 8 | Crabgrass plant response rating (crabgrass; Preemergence, Rate 500 g/ha): 9 | Crabgrass plant response rating (crabgrass; Rate 62 g/ha, Postemergence): 0 | Plant response rating, Crabgrass (crabgrass; [3]): 3 | Plant response rating, Giant foxtail (giant foxtail; [1]): 0 | Plant response rating, Giant foxtail (giant foxtail; [2]): 8 | Giant foxtail plant response rating (0 to 10 scale) (giant foxtail; Preemergence, Rate 125 g/ha): 9 | Giant foxtail plant response rating (giant foxtail; Preemergence, Rate 250 g/ha): 10 | Giant foxtail plant response rating (giant foxtail; Preemergence, Rate 500 g/ha): 10 | Giant foxtail plant response rating (giant foxtail; Rate 62 g/ha, Postemergence): 0 | Plant response rating, Giant foxtail (giant foxtail; [3]): 9 | Plant response rating, Rice (rice; [4]): 0 | Rice plant response rating (rice; [5]): 0 | Plant response rating, Rice (rice; [6]): 0 | Plant response rating, Barnyardgrass (bamyardgrass; [4]): 2 | Barnyardgrass plant response rating (bamyardgrass; [5]): 2 | Plant response rating, Barnyardgrass (bamyardgrass; Rate 250 g/ha, Postemergence (flood test species), scale of 0 to 10 where 0 is no effect and 10 is complete control): 9 | Plant response rating, Barnyardgrass (bamyardgrass; [6]): 9 | Plant response rating, Cocklebur (cocklebur; [1]): 0 | Plant response rating, Cocklebur (cocklebur; [2]): 0 | Cocklebur plant response rating (0 to 10 scale) (cocklebur; Preemergence, Rate 125 g/ha): 0 | Cocklebur plant response rating (cocklebur; Preemergence, Rate 500 g/ha): 0 | Cocklebur plant response rating (cocklebur; Rate 62 g/ha, Postemergence): 0 | Plant response rating, Cocklebur (cocklebur; [3]): 1 | Plant response rating, Wild oats (wild oat; [1]): 0 | Plant response rating, Wild oats (wild oat; [2]): 0 | Wild oats plant response rating (0 to 10 scale) (wild oat; Preemergence, Rate 125 g/ha): 0 | Wild oats plant response rating (wild oat; Preemergence, Rate 250 g/ha): 3 | Wild oats plant response rating (wild oat; Preemergence, Rate 500 g/ha): 9 | Wild oats plant response rating (wild oat; Rate 62 g/ha, Postemergence): 0 | Plant response rating, Wild oats (wild oat; [3]): 3 | Plant response rating, S. Flatsedge (smallflower flatsedge; [4]): 5 | S. Flatsedge plant response rating (smallflower flatsedge; [5]): 0 | Plant response rating, Soybean (soybean; [1]): 2 | Plant response rating, Soybean (soybean; [2]): 0 | Soybean plant response rating (0 to 10 scale) (soybean; Preemergence, Rate 125 g/ha): 0 | Soybean plant response rating (soybean; Preemergence, Rate 250 g/ha): 0 | Soybean plant response rating (soybean; Preemergence, Rate 500 g/ha): 0 | Soybean plant response rating (soybean; Rate 62 g/ha, Postemergence): 1 | Plant response rating, Soybean (soybean; [3]): 2 | Plant response rating, Blackgrass (blackgrass; [1]): 4 | Plant response rating, Blackgrass (blackgrass; [2]): 2 | Blackgrass plant response rating (0 to 10 scale) (blackgrass; Preemergence, Rate 125 g/ha): 2 | Blackgrass plant response rating (blackgrass; Preemergence, Rate 250 g/ha, scale of 0 to 10 where 0 is no effect and 10 is complete control): 4 | Blackgrass plant response rating (blackgrass; [7]): 4 | Blackgrass plant response rating (blackgrass; [8]): 1 | Plant response rating, Blackgrass (blackgrass; [9]): 4 | Plant response rating, Blackgrass (blackgrass; [3]): 6 | Plant response rating, Wheat (wheat; [1]): 0 | Plant response rating, Wheat (wheat; [2]): 0 | Wheat plant response rating (0 to 10 scale) (wheat; Preemergence, Rate 125 g/ha): 0 | Wheat plant response rating (wheat; Preemergence, Rate 250 g/ha): 0 | Wheat plant response rating (wheat; Preemergence, Rate 500 g/ha): 0 | Wheat plant response rating (wheat; Rate 62 g/ha, Postemergence): 0 | Plant response rating, Wheat (wheat; [3]): 3 | Plant response rating, Velvetleaf (velvetleaf; [1]): 0 | Plant response rating, Velvetleaf (velvetleaf; [2]): 0 | Velvetleaf plant response rating (0 to 10 scale) (velvetleaf; Preemergence, Rate 125 g/ha): 0 | Velvetleaf plant response rating (velvetleaf; Preemergence, Rate 250 g/ha): 3 | Velvetleaf plant response rating (velvetleaf; Preemergence, Rate 500 g/ha): 3 | Velvetleaf plant response rating (velvetleaf; Rate 62 g/ha, Postemergence): 0 | Plant response rating, Velvetleaf (velvetleaf; [3]): 0 | Plant response rating, Corn (corn; [1]): 0 | Plant response rating, Corn (corn; [2]): 0 | Corn plant response rating (0 to 10 scale) (corn; Preemergence, Rate 125 g/ha): 0 | Corn plant response rating (corn; Preemergence, Rate 250 g/ha): 0 | Corn plant response rating (corn; Preemergence, Rate 500 g/ha): 2 | Corn plant response rating (corn; Rate 62 g/ha, Postemergence): 0 | Plant response rating, Corn (corn; [3]): 0 | Plant response rating, Ducksalad (duck salad; [4]): 0 | Ducksalad plant response rating (duck salad; [5]): 0 | Plant response rating, Ducksalad (duck salad; [6]): 4 | Plant response rating, B. signalgrass (surinam grass; [1]): 0 | B. signalgrass plant response rating (surinam grass; [7]): 4 | B. signalgrass plant response rating (surinam grass; [8]): 0 | Plant response rating, B. signalgrass (surinam grass; [9]): 0 | Plant response rating, B. signalgrass (surinam grass; [3]): 0 | Plant response rating, Bedstraw (bedstraw; Rate 125 g/ha, scale 0 to 10, 0 is no effect, 10 is complete control): 3 | Bedstraw plant response rating (bedstraw; Rate 62 g/ha, scale of 0 to 10 where 0 is no effect and 10 is complete control): 2 | Plant response rating, Bedstraw (bedstraw; Rate 500 g/ha, scale 0 to 10, 0 no effect, 10 complete control): 3
